Source: patent US7754911B2, “Method for isolating methyl glycine nitrile-N,N-diacetonitriles from an aqueous crude mixture” (BASF Aktiengesellschaft, priority 2005, dated 2010)

Assay: solubility of MGDN in water (temperature-dependent)
Assay type: physicochemical
Experimental: MGDN has highly temperature-dependent solubility in water. For instance, only about 0.5% by weight of MGDN dissolves at 10° C. in water or an aqueous ammonium sulfate solution. At approx. 60° C., the solubility is still about 5% by weight. Above approx. 60° C., an emulsion of MGDN and its aqueous solution with more than 5% by weight of dissolved MGDN is present. No phase diagram of the water-MGDN system is known.
The MGDN concentration of the aqueous crude product mixture is generally from 3 to 50% by weight, preferably from 15 to 40% by weight, more preferably from 20 to 35% by weight. A content of dissolved MGDN of 1% by weight corresponds to a crystallization temperature of approx. 20° C., a content of dissolved MCDN of 5% by weight to a crystallization temperature of approx. 55° C. At 10° C., the water solubility of MGDN is still about 0.5% by weight.

CC(C#N)N(CC#N)CC#N (centres unmarked) [MGDN, methylglycinenitrile-N,N-diacetonitrile]
water solubility (at 10° C.): about 0.5 % by weight | solubility (at 10° C. in water or an aqueous ammonium sulfate solution): about 0.5 % by weight | solubility (at approx. 60° C., in water): about 5 % by weight | content of dissolved MGDN (corresponds to a crystallization temperature of approx. 20° C.): 1 % by weight | content of dissolved MGDN (corresponds to a crystallization temperature of approx. 55° C.): 5 % by weight
